Experimental data as given in patent publication US9062028B2, “Bicyclic nitrogen containing heteroaryl TGR5 receptor modulators” (Bristol-Myers Squibb Company, priority 2011, dated 2015).
pEC50: −log10 of the molar value. Structures can show the parent of a compound that is named as a salt.

Molecular target: T1, recombinant human TGR5 (Homo sapiens, UniProt Q8TDU6)
T1 construct: expressed in transfected cells
T1 sequence (Q8TDU6 1-330): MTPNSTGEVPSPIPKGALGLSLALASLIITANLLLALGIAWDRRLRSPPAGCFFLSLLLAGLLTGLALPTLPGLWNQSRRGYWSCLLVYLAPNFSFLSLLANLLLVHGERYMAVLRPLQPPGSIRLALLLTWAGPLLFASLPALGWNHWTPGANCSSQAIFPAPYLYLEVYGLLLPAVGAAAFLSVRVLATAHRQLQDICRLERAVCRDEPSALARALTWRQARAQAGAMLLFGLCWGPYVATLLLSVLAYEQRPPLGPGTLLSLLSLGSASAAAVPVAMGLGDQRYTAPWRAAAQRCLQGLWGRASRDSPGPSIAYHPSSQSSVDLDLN
Experiment: cAMP assay (cAMP accumulation, HTRF) in CHOK1 cells stably expressing TGR5
Format: cell-based
Conditions: CHOK1 cells stably expressing human TGR5, 30 minutes at RT, 1% DMSO
Protocol: The in vitro modulation of recombinant human TGR5 was determined as follows.
A human TGR5 expression construct of human TGR5 was integrated into the genome of a CHOK1 cell line (Invitrogen). Once a stable CHOK1 cell line was generated, the cells were incubated for 5-10 minutes in culture medium consisting of F-12 (Invitrogen#11765-047) supplemented with 10% fetal bovine serum.
On the day of the cAMP accumulation assay, cells stably expressing the […] TGR5 construct were centrifuged at 1000 rpm for 5 minutes. The medium was aspirated and the cells were resuspended in 5 mL of assay buffer (phosphate-buffered saline with Ca^2+ and Mg^2+, Invitrogen#14040). The cells were counted using 1:2 dilution and then adjusted to 0.4-0.5×10^6 cells/mL in assay buffer, if necessary. Isobutylmethylxanthine (IBMX, Sigma#I5879) was added via a 1:5000 dilution to make a 0.1 mM final concentration and then 10 μL of the media were transferred to each well of a 384 well poly-D-lysine coated solid white plate (BD #35-6661) pre-dotted with 100 nL of with the desired concentration of compound added from a concentrated stock dissolved in dimethyl sulfoxide (DMSO) to give a final concentration of 1% DMSO in the assay. The plates were covered and incubated for 30 minutes at RT. cAMP accumulation was measured using the CisBio homogeneous time resolved fluorescence (HTRF) assay kit (#62AM2PEC) following the manufacturer's protocol. Briefly, 5 μl each of the cAMP-HTRF fluorescence detection reagents were added to each well, and the samples were incubated for at least one hour at room temperature. Fluorescence was excited at 320 nm and measured at 665 and 620 nm using the Envision instrument (Perkin Elmer), the fluorescence ratio of 665/620 was calculated and converted to nanomolar concentrations of cAMP in each well by interpolation from a cAMP standard curve. The concentration-response curves and EC50 values were calculated with a four parameter logistic curve fit equation utilizing Excel/XLfit software (Microsoft and IDBS). The EC50 value was calculated as the concentration of agonist which increased the cAMP concentration to a value halfway between the baseline and the maximum.

Structure (SMILES)	pEC50
Cc1cccc(OCCCC(=O)N2CCCc3c(-c4cnn(CCNC(=O)C5(C(=O)O)CC5)c4)cccc32)c1C [Example 110H, 1-(2-(4-(1-(4-(2,3-Dimethylphenoxy)butanoyl)-1,2,3,4-tetrahydroquinolin-5-yl)-1H-pyrazol-1-yl)ethylcarbamoyl) cyclopropanecarboxylic acid]	5.18
Cc1cccc(OCCCC(=O)N2CCCc3c(-c4cnn(CCNC(=O)C5(C(=O)NCCS(=O)(=O)O)CC5)c4)cccc32)c1C [Example 110K, 2-(1-(2-(4-(1-(4-(2,3-Dimethylphenoxy)butanoyl)-1,2,3,4-tetrahydroquinolin-5-yl)-1H-pyrazol-1-yl)ethylcarbamoyl)cyclopropanecarboxamido) ethanesulfonic acid]	5.30
Cc1cccc(OCCCC(=O)N2CCCc3c(-c4cnn(Cc5cccc(S(=O)(=O)NCCS(=O)(=O)O)c5)c4)cccc32)c1C [Example 110T, 2-(3-((4-(1-(4-(2,3-Dimethylphenoxy)butanoyl)-1,2,3,4-tetrahydroquinolin-5-yl)-1H-pyrazol-1-yl)methyl)phenylsulfonamido) ethanesulfonic acid]	6.22
Cc1cccc(OCCCC(=O)N2CCCc3c(-c4nnn(Cc5cccc(C(=O)O)c5)n4)cccc32)c1C [Example 112, 3-((5-(1-(4-(2,3-Dimethylphenoxy)butanoyl)-1,2,3,4-tetrahydroquinolin-5-yl)-2H-tetrazol-2-yl)methyl)benzoic acid]	6.84
Cc1cccc(OCCCC(=O)N2CCCc3c(-c4ccc(OCc5cccc(C(=O)O)c5)cn4)cccc32)c1C [Example 123, 3-((6-(1-(4-(2,3-Dimethylphenoxy)butanoyl)-1,2,3,4-tetrahydroquinolin-5-yl)pyridin-3-yloxy)methyl)benzoic acid]	5.90
Cc1cccc(OCCCC(=O)N2CCCc3c(-c4cnc(OCC(=O)O)nc4)cccc32)c1C [Example 124, 2-(5-(1-(4-(2,3-Dimethylphenoxy)butanoyl)-1,2,3,4-tetrahydroquinolin-5-yl)pyrimidin-2-yloxy)acetic acid, TFA salt]	5.30
Cc1cccc(OCCCC(=O)N2CCCc3c(-c4cccc(C(=O)NCC(=O)O)c4)cccc32)c1C [Example 138, 2-(3-(1-(4-(2,3-Dimethylphenoxy)butanoyl)-1,2,3,4-tetrahydroquinolin-5-yl)benzamido)acetic acid]	5.46
Cc1cccc(OCCCC(=O)N2CCCc3c(-c4cnn(C(C)(C)C(=O)NCCS(=O)(=O)O)c4)cccc32)c1C [Example 146Y, 2-(2-(4-(1-(4-(2,3-Dimethylphenoxy)butanoyl)-1,2,3,4-tetrahydroquinolin-5-yl)-1H-pyrazol-1-yl)-2-methylpropanamido)ethanesulfonic acid]	5.54
Cc1cccc(OCCCC(=O)N2CCCc3c(-c4cccc(C(=O)NCCS(=O)(=O)O)c4)cccc32)c1C [Example 148, 2-(3-(1-(4-(2,3-Dimethylphenoxy)butanoyl)-1,2,3,4-tetrahydroquinolin-5-yl)benzamido) ethanesulfonic acid]	5.48
Cc1cccc(OCCCC(=O)N2CCCc3c(-c4cccc(COC(=O)NC[C@H](NC(=N)N)C(=O)O)c4)cccc32)c1C [Example 168F, (S)-3-((3-(1-(4-(2,3-Dimethylphenoxy)butanoyl)-1,2,3,4-tetrahydroquinolin-5-yl)benzyloxy)carbonylamino)-2-guanidinopropanoic acid]	6.23
Cc1cccc(OCCCC(=O)N2CCCc3c(-c4cnn(Cc5cccc(C(=O)NCCS(=O)(=O)O)c5)c4C)cccc32)c1C [Example 168J, 2-(3-((4-(1-(4-(2,3-Dimethylphenoxy)butanoyl)-1,2,3,4-tetrahydroquinolin-5-yl)-5-methyl-1H-pyrazol-1-yl)methyl)benzamido) ethanesulfonic acid]	6.19
Cc1cccc(OCCCC(=O)N2CCCc3c(-c4ccn(Cc5cccc(C(=O)NCCS(=O)(=O)O)c5)c4)cccc32)c1C [Example 168N]	5.36
Cc1cccc(OCCCC(=O)N2CCCc3c(-c4cnn(Cc5c(F)cc(C(=O)NCCC[C@H](NC(=N)N)C(=O)O)cc5Cl)c4)cccc32)c1C [Example 171, (S)-5-(3-Chloro-4-((4-(1-(4-(2,3-dimethylphenoxy)butanoyl)-1,2,3,4-tetrahydroquinolin-5-yl)-1H-pyrazol-1-yl)methyl)-5-fluorobenzamido)-2-guanidinopentanoic acid, TFA salt]	7.25
Cc1cccc(OCCCC(=O)N2CCCc3c(-c4cnn(Cc5c(F)cc(C(=O)NCS(=O)(=O)O)cc5Cl)c4)cccc32)c1C [Example 179, (3-Chloro-4-((4-(1-(4-(2,3-dimethylphenoxy)butanoyl)-1,2,3,4-tetrahydroquinolin-5-yl)-1H-pyrazol-1-yl)methyl)-5-fluorobenzamido)methanesulfonic acid]	7.35
Cc1c(Cl)cccc1OCCCC(=O)N1CCCc2c(-c3cnn(CC(=O)O)c3)cccc21 [Example 197, 2-(4-(1-(4-(3-Chloro-2-methylphenoxy)butanoyl)-1,2,3,4-tetrahydroquinolin-5-yl)-1H-pyrazol-1-yl)acetic acid]	5.67

Now from value to compound:

pEC50	Structure (SMILES)
6.97	Cc1cccc(OCCCC(=O)N2CCCc3c(-c4cnn(Cc5cccc(NC(=O)NCC(=O)O)c5)c4)cccc32)c1C [Example 83, 2-(3-(3-((4-(1-(4-(2,3-Dimethylphenoxy)butanoyl)-1,2,3,4-tetrahydroquinolin-5-yl)-1H-pyrazol-1-yl)methyl)phenyl)ureido)acetic acid]
5.50	Cc1cccc(OCCCC(=O)N2CCCc3c(-c4cnn(CCNC(=O)NCC(=O)O)c4)cccc32)c1C [Example 110G, 2-(3-(2-(4-(1-(4-(2,3-Dimethylphenoxy)butanoyl)-1,2,3,4-tetrahydroquinolin-5-yl)-1H-pyrazol-1-yl)ethyl)ureido)acetic acid]
5.48	Cc1cccc(OCCCC(=O)N2CCCc3c(-c4cnn(CCNC(=O)CC(=O)O)c4)cccc32)c1C [Example 110J, 3-(2-(4-(1-(4-(2,3-Dimethylphenoxy)butanoyl)-1,2,3,4-tetrahydroquinolin-5-yl)-1H-pyrazol-1-yl)ethylamino)-3-oxopropanoic acid]
6.19	Cc1cccc(OCCCC(=O)N2CCCOc3c(-c4cnn(Cc5ccc(C(=O)NCCC(=O)O)cc5)c4)cccc32)c1C [Example 142, 3-(4-((4-(5-(4-(2,3-Dimethylphenoxy)butanoyl)-2,3,4,5-tetrahydrobenzo[b][1,4]oxazepin-9-yl)-1H-pyrazol-1-yl)methyl)benzamido)propanoic acid]
7.31	Cc1c(Cl)cccc1OCCCC(=O)N1CCCOc2c(-c3cnn(Cc4cccc(C(=O)NCS(=O)(=O)O)c4)c3)cccc21 [Example 146R, (3-((4-(5-(4-(3-Chloro-2-methylphenoxy)butanoyl)-2,3,4,5-tetrahydrobenzo[b][1,4]oxazepin-9-yl)-1H-pyrazol-1-yl)methyl)benzamido) methanesulfonic acid]
7.33	Cc1cccc(OCCCC(=O)N2CCCc3c(-c4cnn(Cc5c(F)cc(C(=O)NCCC(=O)O)cc5Cl)c4)cccc32)c1C [Example 176, 3-(3-Chloro-4-((4-(1-(4-(2,3-dimethylphenoxy)butanoyl)-1,2,3,4-tetrahydroquinolin-5-yl)-1H-pyrazol-1-yl)methyl)-5-fluorobenzamido) propanoic acid]
7.32	Cc1cccc(OCCCC(=O)N2CCCc3c(-c4cnn(Cc5c(F)cc(C(=O)NCC(=O)O)cc5Cl)c4)cccc32)c1C [Example 177, 2-(3-Chloro-4-((4-(1-(4-(2,3-dimethylphenoxy)butanoyl)-1,2,3,4-tetrahydroquinolin-5-yl)-1H-pyrazol-1-yl)methyl)-5-fluorobenzamido)acetic acid]
6.23	Cc1cccc(OCCOC(=O)N2CCOc3c(-c4cnn(Cc5cccc(C(=O)NCCS(=O)(=O)O)c5)c4)cccc32)c1C [Example 182, 2-(3-((4-(4-((2-(2,3-Dimethylphenoxy)ethoxy)carbonyl)-3,4-dihydro-2H-benzo[b] [1,4]oxazin-8-yl)-1H-pyrazol-1-yl)methyl)benzamido) ethanesulfonic acid]
